Here are results for 40 compounds from ChEMBL document CHEMBL2057069, “Benzoxazole and benzothiazole amides as novel pharmacokinetic enhancers of HIV protease inhibitors” (Bioorg Med Chem Lett, 2012).

Assay [1] deals with Human immunodeficiency virus 1. Kind of assay: Antiviral activity against wild type HIV1 3B infected in human MT4 LTR-EGFP cells by EGFP reporter gene assay. Format: functional, organism-based. Conditions: Human immunodeficiency virus 1, 3B.
A further assay has as its target Cytochrome P450 3A4 (Homo sapiens, UniProt P08684). Kind of assay: Inhibition of CYP3A4 in human liver microsomes using midazolam as substrate after 10 mins by LC/MS/MS analysis. In general terms: Liver microsomes are a subcellular fraction often used to study metabolism.

Broadly, the EC50 is the concentration needed to bring the measured effect to its halfway point. A high value points to weaker potency. Usually IC50 stands for the concentration that gives 50% inhibition.

Cytochrome P450 3A4, sequence (P08684 whole entry): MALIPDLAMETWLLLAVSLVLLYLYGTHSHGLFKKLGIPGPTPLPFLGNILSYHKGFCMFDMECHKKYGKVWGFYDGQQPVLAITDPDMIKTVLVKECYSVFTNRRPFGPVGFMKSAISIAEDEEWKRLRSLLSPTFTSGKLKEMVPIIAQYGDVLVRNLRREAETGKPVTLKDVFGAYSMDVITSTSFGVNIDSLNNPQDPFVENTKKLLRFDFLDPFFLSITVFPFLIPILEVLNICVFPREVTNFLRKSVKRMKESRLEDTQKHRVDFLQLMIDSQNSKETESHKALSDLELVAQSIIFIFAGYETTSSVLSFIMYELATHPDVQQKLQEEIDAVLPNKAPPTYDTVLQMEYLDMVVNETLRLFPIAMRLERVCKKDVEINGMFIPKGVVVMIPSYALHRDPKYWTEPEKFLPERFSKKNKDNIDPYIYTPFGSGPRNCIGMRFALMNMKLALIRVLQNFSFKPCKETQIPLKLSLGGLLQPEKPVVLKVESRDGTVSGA

As to `CCN(C[C@@H](O)[C@H](Cc1ccccc1)NC(=O)OCc1cncs1)C(=O)c1ccc2nc(N3CCCC3)oc2c1`, the EC50 in assay [1] is 69 µM. Further, inhibition on Cytochrome P450 3A4 was half-maximal at 0.06 µM (IC50).
In assay [1], `CC(C)CN(C[C@@H](O)[C@H](Cc1ccccc1)NC(=O)OCc1cncs1)C(=O)c1ccc2nc(N3CCCCC3)oc2c1` came in with an EC50 of 36 µM.
`C#CCN(C)c1nc2ccc(C(=O)N(CC(C)C)C[C@@H](O)[C@H](Cc3ccccc3)NC(=O)OCc3cncs3)cc2o1` registered an EC50 in assay [1] of 48 µM. Moreover, the IC50 against Cytochrome P450 3A4 came out at 0.03 µM.
As to `CC(C)CN(C[C@@H](O)[C@H](Cc1ccccc1)NC(=O)OCc1cncs1)C(=O)c1ccc2nc(NCCCn3ccnc3)oc2c1`, the EC50 in assay [1] amounted to 87 µM.
Turning to `O=C(N[C@@H](Cc1ccccc1)[C@H](O)CN(CC1CCCCC1)C(=O)c1ccc2nc(N3CCCC3)oc2c1)OCc1cncs1`, the EC50 in assay [1] was found to be 28 µM. Moreover, it took 0.026 µM to reach half-maximal inhibition against Cytochrome P450 3A4 (IC50).
`CC(C)CN(C[C@@H](O)[C@H](Cc1ccccc1)NC(=O)OCc1cncs1)C(=O)c1ccc2nc(C(C)C)oc2c1` returned an EC50 in assay [1] of 45 µM. In addition, the IC50 on Cytochrome P450 3A4 is 0.037 µM.
Regarding `CC(C)CN(C[C@@H](O)[C@H](Cc1ccccc1)NC(=O)OCc1cncs1)C(=O)c1ccc2nc(NC3CCN(C)CC3)oc2c1`, the EC50 in assay [1] was more than 100 µM. The same compound showed an IC50 against Cytochrome P450 3A4 of 2.7 µM.
In the case of `Cc1nc2ccc(C(=O)N(CC(C)C)C[C@@H](O)[C@H](Cc3ccccc3)NC(=O)OCc3cncs3)cc2o1`, the EC50 in assay [1] is more than 100 µM. The compound also had an IC50 against Cytochrome P450 3A4 of 0.052 µM.
Turning to `CC(C)CN(C[C@H](O)[C@H](Cc1ccccc1)NC(=O)OCc1cncs1)C(=O)c1ccc2nc(N3CCCC3)oc2c1`, a half-maximal effect in assay [1] (EC50) was put at 45 µM.
With `CCN(C)c1nc2ccc(C(=O)N(CCN3CCOCC3)C[C@@H](O)[C@H](Cc3ccccc3)NC(=O)OCc3cncs3)cc2o1`, the EC50 in assay [1] is more than 100 µM. The IC50 against Cytochrome P450 3A4 was 0.14 µM.
On the same counts, the results for `CC(C)(C)CN(C[C@@H](O)[C@H](Cc1ccccc1)NC(=O)OCc1cncs1)C(=O)c1ccc2nc(N3CCCC3)oc2c1` are 30 µM and 0.027 µM.
For `CC(C)c1nc(CN(C)C(=O)N[C@H](C(=O)N[C@@H](Cc2ccccc2)C[C@H](O)[C@H](Cc2ccccc2)NC(=O)OCc2cncs2)C(C)C)cs1` [RITONAVIR], the EC50 in assay [1] worked out at 0.0015 µM.
Consider `CC(C)CN(C[C@@H](O)[C@H](Cc1ccccc1)NC(=O)OCc1cncs1)C(=O)c1ccc2nc(N3CCOCC3)oc2c1`, for which, in assay [1], the EC50 is more than 100 µM. On Cytochrome P450 3A4, this compound yielded an IC50 of 0.038 µM.
`CCN(C[C@@H](O)[C@H](Cc1ccccc1)NC(=O)OCc1cncs1)C(=O)c1ccc2nc(N(C)CC)oc2c1` came in with an EC50 in assay [1] of more than 100 µM. This compound also had an IC50 against Cytochrome P450 3A4 of 0.079 µM.
With `CN(C[C@@H](O)[C@H](Cc1ccccc1)NC(=O)OCc1cncs1)C(=O)c1ccc2nc(N3CCCC3)oc2c1`, in assay [1], the EC50 was more than 100 µM. Besides, at Cytochrome P450 3A4, the IC50 came to 0.084 µM.
In assay [1], `CCN(C)c1nc2ccc(C(=O)N(CC(C)C)C[C@@H](O)[C@H](Cc3ccccc3)NC(=O)OCc3cccnc3)cc2o1` gave an EC50 of 48 µM. The compound also showed an IC50 against Cytochrome P450 3A4 of 0.022 µM.
In the case of `CC(C)CN(C[C@@H](O)[C@H](Cc1ccccc1)NC(=O)OCc1cncs1)C(=O)c1ccc2nc(N3CCN(C)CC3)oc2c1`, the half-maximal effective concentration (EC50) in assay [1] is more than 100 µM. The compound also registered an IC50 at Cytochrome P450 3A4 of 0.092 µM.
In the case of `CCc1nc2ccc(C(=O)N(CC(C)C)C[C@@H](O)[C@H](Cc3ccccc3)NC(=O)OCc3cncs3)cc2o1`, the EC50 in assay [1] came to 87 µM. The compound also registered an IC50 against Cytochrome P450 3A4 of 0.039 µM.
In assay [1], `CC(C)CN(C[C@@H](O)[C@H](Cc1ccccc1)NC(=O)OCc1cncs1)C(=O)c1ccc2nc(N(C)CCN(C)C)oc2c1` gave an EC50 of 63 µM.
In assay [1], `CCN(C)c1nc2ccc(C(=O)N(C[C@@H](O)[C@H](Cc3ccccc3)NC(=O)OCc3cncs3)CC(C)(C)C)cc2o1` had an EC50 of 48 µM. At Cytochrome P450 3A4, this compound displayed an IC50 of 0.037 µM.
In assay [1], `C#CCN(C[C@@H](O)[C@H](Cc1ccccc1)NC(=O)OCc1cncs1)C(=O)c1ccc2nc(N(C)CC)oc2c1` showed an EC50 of 60 µM.
Take `CCN(C)c1nc2ccc(C(=O)N(CC(C)C)C[C@H](O)[C@H](Cc3ccccc3)NC(=O)OCc3cncs3)cc2o1`: the EC50 in assay [1] was 45 µM.
`CCN(C)c1nc2ccc(C(=O)N(CCN3CCCC3)C[C@@H](O)[C@H](Cc3ccccc3)NC(=O)OCc3cncs3)cc2o1` returned a concentration giving a half-maximal response (EC50) in assay [1] of more than 100 µM. On Cytochrome P450 3A4, this compound showed an IC50 of 0.14 µM.
The like results for `CCN(C)c1nc2ccc(C(=O)N(CC(C)C)C[C@@H](O)[C@H](Cc3ccc(F)cc3)NC(=O)OCc3cncs3)cc2o1` were, in that order, 47 µM and 0.023 µM.
On the same counts, the results for `CC(C)CN(C[C@@H](O)[C@H](Cc1ccccc1)NC(=O)OCc1cncs1)C(=O)c1ccc2nc(NCCCN(C)C)oc2c1` are 60 µM and 0.2 µM.
Turning to `CCN(C)c1nc2ccc(C(=O)N(CC(C)C)C[C@@H](O)[C@H](Cc3ccccc3)NC(=O)OCc3ccncc3)cc2o1`, the EC50 in assay [1] came to 49 µM. Also, half-maximal inhibition on Cytochrome P450 3A4 (IC50) required 0.2 µM.
`CCN(C)c1nc2ccc(C(=O)N(CCN(C)C)C[C@@H](O)[C@H](Cc3ccccc3)NC(=O)OCc3cncs3)cc2o1`: the EC50 in assay [1] is more than 100 µM.
On to `CC(C)CN(C[C@@H](O)[C@H](Cc1ccccc1)NC(=O)OCc1cncs1)C(=O)c1ccc2nc(N)oc2c1`, for which the EC50 in assay [1] is more than 100 µM. This compound returned an IC50 on Cytochrome P450 3A4 of 0.042 µM.
In assay [1], `CC(C)CN(C[C@@H](O)[C@H](Cc1ccccc1)NC(=O)OCc1cncs1)C(=O)c1ccc2nc(NCCN(C)C)oc2c1` gave an EC50 of more than 100 µM. Further, at Cytochrome P450 3A4, the IC50 turned out to be 0.2 µM.
As for `CC(C)(O)CN(C[C@@H](O)[C@H](Cc1ccccc1)NC(=O)OCc1cncs1)C(=O)c1ccc2nc(N3CCCC3)oc2c1`, the EC50 in assay [1] was more than 100 µM.
`CC(C)CN(C[C@@H](O)[C@H](Cc1ccccc1)NC(=O)OCc1cncs1)C(=O)c1ccc2nc(N3CCCC3)oc2c1`: the half-maximal effective concentration (EC50) in assay [1] was more than 100 µM. In addition, the 50% inhibitory concentration (IC50) against Cytochrome P450 3A4 was 0.033 µM.
The like results for `CN(C)CCN(C[C@@H](O)[C@H](Cc1ccccc1)NC(=O)OCc1cncs1)C(=O)c1ccc2nc(N3CCCC3)oc2c1` were, in that order, more than 100 µM and 0.23 µM.
On the same counts, the results for `CCNc1nc2ccc(C(=O)N(CC(C)C)C[C@@H](O)[C@H](Cc3ccccc3)NC(=O)OCc3cncs3)cc2o1` are 85 µM and 0.028 µM.
The like results for `CC(C)CN(C[C@@H](O)[C@H](Cc1ccccc1)NC(=O)OCc1cncs1)C(=O)c1ccc2ncoc2c1` were, in that order, more than 100 µM and 0.055 µM.
Turning to `O=C(N[C@@H](Cc1ccccc1)[C@H](O)CN(CCN1CCOCC1)C(=O)c1ccc2nc(N3CCCC3)oc2c1)OCc1cncs1`, the EC50 in assay [1] is more than 100 µM. At Cytochrome P450 3A4, this compound returned an IC50 of 0.12 µM.
With `CCNc1nc2ccc(C(=O)N(C[C@@H](O)[C@H](Cc3ccccc3)NC(=O)OCc3cncs3)CC(C)(C)O)cc2o1`, the EC50 in assay [1] was more than 100 µM.
Take `O=C(N[C@@H](Cc1ccccc1)[C@H](O)CN(CC1CCC(F)(F)CC1)C(=O)c1ccc2nc(N3CCCC3)oc2c1)OCc1cncs1`: in assay [1], the EC50 was determined as 30 µM. Further, the IC50 against Cytochrome P450 3A4 came to 0.03 µM.
On the same counts, the results for `CCN(C)c1nc2ccc(C(=O)N(CC(C)C)CC(O)[C@H](Cc3cccnc3)NC(=O)OCc3cncs3)cc2o1` (single isomer, unassigned) are more than 100 µM and 0.069 µM.
In turn, `CCN(C)c1nc2ccc(C(=O)N(CC(C)C)C[C@@H](O)[C@H](Cc3ccccc3)NC(=O)OCc3ccc4c(c3)OCO4)cc2o1` displayed an EC50 in assay [1] of 16 µM.
Still for that read-out and setting: next, `CC(C)CN(C[C@@H](O)[C@H](Cc1ccccc1)NC(=O)OCc1cncs1)C(=O)c1ccc2nc(N(C)C)oc2c1`: 47 µM.
